Patent US6630466B2, “Medicament compositions containing anticholinergically-effective compounds and salmeterol” (priority 1999, dated 2003)
Where “and” joins values, the source holds several entries; their conditions need not be identical. Identical values can stand only once. Counter-ions that a name gives are not always drawn.

How the values were obtained:
[1] = tested on: Heart Frequency of Narcotized Dogs; assay: Heart frequency of narcotized dogs after inhalative application via RESPIMAT (ECG, cardiotachometer)
Protocol: (§1) 18 mongrel dogs with a body weight of 27 to 32 kg. Kept in individual or communal cages, pelleted standard food, last fed approximately 15 hours before the start of the tests, drinking water freely available.
(§2) After pre-medication with 2 mg/kg morphine hydrochloride i.m., 30 mg/kg pentobarbital-sodium (NEMBUTAL®) is slowly injected intravenously. The animals are relaxed with 1.0 mg/kg i.v. suxamethonium.
Registration of heart frequency is via ECG (extremity derivative II) and cardiotachometer.
After an equilibration period of 30 minutes, short-term bronchospasms are generated by i.v. injection of 10 μg/kg acetylcholine chloride—this is repeated 2-3× within a 10-minute period. […] Application of the combinations takes place with the individual combinations with an interval of approximately 1 minute. With the BINEB system, the triggering mechanism takes place at the end of the expiration phase and the atomized solution is pressed into the tracheo-bronchial tree in the following inspiration phase of the breath pump.

[2] = tested on: bronchial resistance of narcotized dogs; assay: Bronchospasmolytic effect: inhibition of ACh-induced increase of pulmonary resistance in narcotized dogs after inhalative application via […]; type: in vivo, dog; conditions: single substances 3 and 10 μg, combination 3 μg + 3 μg
Protocol: as §1, §2
After intubation via a servo ventilator 900C (Siemens), the animals are ventilated with ambient air and oxygen (4:1), frequency 15/min., breath volume 6 to 8 L/min. For registration of the breathing mechanics, breath flow is determined by means of a pressurizing pipe (flesh no. 1), installed directly before the orotracheal tube, of a differential pressure recorder and amplifier DCB-4C. A catheter is placed in the trachea and a second (balloon) catheter is placed in the lung section of the esophagus. Both are connected with a differential pressure recorder and amplifier for determination of the transpulmonary pressure. A breath mechanics computer (IFD-Mühlheim) determines the pulmonary resistance (R) from the registered pressure values. From this, a computer program VAS-1 LA (IFD-Mühlheim) calculates: [formula] […]

[3] = 3 μg inhalative, 1 min after application, individual dog
[4] = 3 μg inhalative, 5 min after application, individual dog
[5] = 3 μg inhalative, 5 min after application, mean value, n = 6
[6] = 3 μg inhalative, 10 min after application, individual dog
[7] = 3 μg inhalative, 20 min after application, individual dog
[8] = 3 μg inhalative, 30 min after application, individual dog
[9] = 3 μg inhalative, 60 min after application, individual dog
[10] = 3 μg inhalative, 120 min after application, individual dog
[11] = 3 μg inhalative, 180 min after application, individual dog
[12] = 3 μg inhalative, 180 min after application, mean value, n = 6
[13] = 10 μg inhalative, 1 min after application, individual dog
[14] = 10 μg inhalative, 5 min after application, individual dog
[15] = 10 μg inhalative, 5 min after application, mean value, n = 6
[16] = 10 μg inhalative, 10 min after application, individual dog
[17] = 10 μg inhalative, 10 min after application, mean value, n = 6
[18] = 10 μg inhalative, 20 min after application, individual dog
[19] = 10 μg inhalative, 20 min after application, mean value, n = 6
[20] = 10 μg inhalative, 30 min after application, individual dog
[21] = 10 μg inhalative, 30 min after application, mean value, n = 6
[22] = 10 μg inhalative, 60 min after application, individual dog
[23] = 10 μg inhalative, 60 min after application, mean value, n = 6
[24] = 10 μg inhalative, 120 min after application, individual dog
[25] = 10 μg inhalative, 180 min after application, individual dog
[26] = 10 μg inhalative, 180 min after application, mean value, n = 6

COc1ccc(CC(C)NCC(O)c2ccc(O)c(NC=O)c2)cc1 (centres unmarked) [formoterol fumarate, formoterol]
Heart frequency (beats/min.) [1, 3]: 67.00 beats/min. and 91.00 beats/min. and 102.00 beats/min. | Heart frequency, % alteration [1, 3]: 7.94% and −7.52% and 11.67% and 13.04% and 21.13% and 15.68% | Heart frequency (beats/min.) ([1]; 3 μg inhalative, 1 min after application, mean value, n = 6): 103.17 beats/min. | Heart frequency (beats/min.) [1, 4]: 140.00 beats/min. and 64.00 beats/min. and 95.00 beats/min. | Heart frequency, % alteration [1, 4]: 11.11% and 5.26% and 6.67% and 18.01% and 28.64% and 25.41% | Heart frequency (beats/min.) [1, 5]: 109.50 beats/min. | Heart frequency, % alteration [1, 5]: 15.85% | Heart frequency (beats/min.) [1, 6]: 100.00 beats/min. and 110.00 beats/min. | Heart frequency, % alteration [1, 6]: 36.51% and 21.80% and 66.67% and 36.65% and 29.58% | Heart frequency, % alteration ([1]; 3 μg inhalative, 10 min after application, mean value, n = 6): 37.72% | Heart frequency (beats/min.) [1, 7]: 165.00 beats/min. and 95.00 beats/min. and 100.00 beats/min. and 141.00 beats/min. | Heart frequency, % alteration [1, 7]: 41.80% and 24.06% and 54.33% and 24.44% and 32.39% and 36.22% | Heart frequency, % alteration ([1]; 3 μg inhalative, 20 min after application, mean value, n = 6): 36.17% | Heart frequency (beats/min.) [1, 8]: 159.00 beats/min. and 89.00 beats/min. and 95.00 beats/min. | Heart frequency, % alteration [1, 8]: 46.03% and 48.33% and 18.01% and 38.38% | Heart frequency, % alteration ([1]; 3 μg inhalative, 30 min after application, mean value, n = 6): 34.41% | Heart frequency (beats/min.) [1, 9]: 86.00 beats/min. and 94.00 beats/min. and 140.00 beats/min. | Heart frequency, % alteration [1, 9]: 41.80% and 15.04% and 43.33% and 31.46% and 38.38% | Heart frequency, % alteration ([1]; 3 μg inhalative, 60 min after application, mean value, n = 6): 31.13% | Heart frequency (beats/min.) [1, 10]: 88.00 beats/min. and 94.00 beats/min. and 130.00 beats/min. and 120.00 beats/min. | Heart frequency, % alteration [1, 10]: 21.69% and 46.67% and 29.73% | Heart frequency (beats/min.) [1, 11]: 140.00 beats/min. and 86.00 beats/min. and 96.00 beats/min. and 130.00 beats/min. and 120.00 beats/min. | Heart frequency, % alteration [1, 11]: 14.29% and 5.26% and 43.33% and 19.25% and 29.73% | Heart frequency (beats/min.) [1, 12]: 113.33 beats/min. | Heart frequency, % alteration [1, 12]: 22.32% | Heart frequency (beats/min.) [1, 13]: 96.00 beats/min. | Heart frequency, % alteration [1, 13]: 22.75% and 9.02% and 81.67% and 19.25% and −1.41% and 31.89% | Heart frequency, % alteration ([1]; 10 μg inhalative, 1 min after application, mean value, n = 6): 27.20% | Heart frequency (beats/min.) [1, 14]: 136.00 beats/min. and 120.00 beats/min. (2×) | Heart frequency, % alteration [1, 14]: 61.90% and 2.26% and 143.33% and 49.07% and 12.68% and 31.89% | Heart frequency (beats/min.) [1, 15]: 132.83 beats/min. | Heart frequency, % alteration [1, 15]: 50.19% | Heart frequency (beats/min.) [1, 16]: 191.00 beats/min. and 152.00 beats/min. and 144.00 beats/min. and 160.00 beats/min. and 130.00 beats/min. and 155.00 beats/min. | Heart frequency, % alteration [1, 16]: 64.02% and 43.61% and 153.33% and 78.88% and 50.23% and 40.54% | Heart frequency (beats/min.) [1, 17]: 155.33 beats/min. | Heart frequency, % alteration [1, 17]: 71.77% | Heart frequency (beats/min.) [1, 18]: 204.00 beats/min. and 156.00 beats/min. and 135.00 beats/min. and 157.00 beats/min. | Heart frequency, % alteration [1, 18]: 66.14% and 53.38% and 155.00% and 93.79% and 48.36% and 45.95% | Heart frequency (beats/min.) [1, 19]: 160.50 beats/min. | Heart frequency, % alteration [1, 19]: 77.10% | Heart frequency (beats/min.) [1, 20]: 207.00 beats/min. and 150.00 beats/min. (2×) and 156.00 beats/min. and 140.00 beats/min. and 159.00 beats/min. | Heart frequency, % alteration [1, 20]: 68.25% and 55.64% and 150.00% and 93.79% and 40.85% and 51.35% | Heart frequency (beats/min.) [1, 21]: 160.33 beats/min. | Heart frequency, % alteration [1, 21]: 76.65% | Heart frequency (beats/min.) [1, 22]: 210.00 beats/min. and 149.00 beats/min. and 140.00 beats/min. (2×) and 150.00 beats/min. and 163.00 beats/min. | Heart frequency, % alteration [1, 22]: 72.49% and 57.89% and 148.33% and 73.91% and 40.85% and 51.35% | Heart frequency (beats/min.) [1, 23]: 158.67 beats/min. | Heart frequency, % alteration [1, 23]: 74.14% | Heart frequency (beats/min.) [1, 24]: 209.00 beats/min. and 140.00 beats/min. and 135.00 beats/min. and 176.00 beats/min. | Heart frequency, % alteration [1, 24]: 86.24% and 57.14% and 143.33% and 73.91% and 45.95% | Heart frequency, % alteration ([1]; 10 μg inhalative, 120 min after application, mean value, n = 6): 73.79% | Heart frequency (beats/min.) [1, 25]: 205.00 beats/min. and 141.00 beats/min. and 130.00 beats/min. and 135.00 beats/min. and 152.00 beats/min. | Heart frequency, % alteration [1, 25]: 60.85% and 54.14% and 135.00% and 61.49% and 45.95% | Heart frequency (beats/min.) [1, 26]: 151.33 beats/min. | Heart frequency, % alteration [1, 26]: 65.59% | maximum increase of heart frequency ([1]; high dosage (10 μg)): over 90% | increase of heart frequency after the end of the test ([1]; high dosage (10 μg), end of test (180 minutes)): over 80% | onset of maximum bronchospasmolytic effect [2]: rapidly occurs | effective duration of bronchospasmolytic effect ([2]; test duration 180 minutes): comparatively short
